Here are results for one molecule from US20230272077A1, “PD-1 SIGNAL INHIBITOR COMBINATION THERAPY” (KYOTO UNIVERSITY, priority 2015, published 2023).

Molecules are shown by their SMILES. “Also recorded” adds a separate entry of the source.

The test system of assay [1] is AMPK and its associated proteins ACC and SIRT1. As to the kind of experiment: Western blotting of DLN CD8+ T cells, AMPK pathway. The format is in vivo, mouse. Particulars: CD8+ T cells from mice treated with PD-L1 antibody and reagent. As to the method:
(§1) FIG. 7. […] Phosphorylation of AMPK, ACC, mTOR and S6K and the expression of SIRT1 and 4EBP1 were analyzed by Western blotting. b) MC38-bearing mice were treated with PD-L1 antibody in combination with AMPK activator (A769662) and/or mTOR activator (MHY1485) according to the same schedule as shown in FIG. 3b.
(§2) CD8^+ T cells were isolated using mouse CD8 Microbeads (Miltenyi Biotec). After washing with PBS twice, 2×10^6 cells were solubilized in a lysis buffer containing 30 mM Tris-HCl (pH.7.4), 150 mM NaCl, 10% glycerol, 0.1% SDS, 1% Triton-X-100, 0.05% Na-Doc, 5 mM EDTA (pH.8.0), protease inhibitor mixture (Roche Molecular Biochemicals) and phosphatase inhibitors (Nacalai Tesque). After measurement of protein concentrations by DC protein assay (Bio-Rad), 4 μg of proteins was mounted on 4 to 20% gradient Mini-PROTEAN TGX Gels (Bio-Rad) and electroblotted onto nitrocellulose membranes, which were then incubated in a blocking buffer of TBS containing 1% BSA. Primary antibody incubations were carried out overnight at 4° C. in blocking buffer. After washing, secondary antibody incubations were carried out at room temperature for 40 min in blocking buffer. Blots were developed with enhanced chemiluminescence (Amersham Pharmacia). […]
(In western blotting, separated proteins are transferred to a membrane and probed.)

Assay [2] concerns mTOR and its associated proteins S6K and 4EBP1. As to the kind of experiment: Western blotting of DLN CD8+ T cells, mTOR pathway. It is filed as in vivo, mouse. Particulars: CD8+ T cells from mice treated with PD-L1 antibody and reagent. As to the method:
as §1, §2

The test system of a further assay is MethA. As to the kind of experiment: Mouse therapy model, MethA-transplanted BALB/c mice (tumor volume). The format is in vivo. Particulars: MethA in BALB/c mice; combined with PD-L1 antibody. As to the method:
(§3) MC38 (5×10^5) and MethA (5×10^5) cells were intradermally injected on the right flank. MC38 was inoculated into C57BL/6 mice and MethA was inoculated into BALB/c mice. For monotherapy, mice were intraperitoneally injected with 150 μg of PD-L1 mouse antibody (1-111A) (prepared by the laboratory of the present inventors) 5 days after the tumor inoculation. Therapy with PD-L1 antibody alone was repeated three times every 5 days. For combination therapy, administration of PD-L1 antibody and chemical agents started 7 days after tumor injection. Chemical agents were injected at a regular interval of 2 days and PD-L1 antibody at a regular interval of 5 days (shown in FIG. 3b). Tumors were measured on every alternate day, and tumor volumes were calculated using the formula for typical ellipsoid, π×(length×breadth×height/6).
(§4) The following chemical reagents were used at the indicated concentrations for combination therapy. AMPK activator: A769662, 6 mg/kg (Abcam); mTOR activator: MHY1485, 3 μg/kg (Sigma-Aldrich); uncoupler: carbonylcyanide-p-trifluoromethoxyphenylhydrazone (FCCP), 1.2 mg/kg (Abcam); uncoupler: 2,4-Dinitrophenol (DNP), 1.7 mg/kg (Aldrich); SIRT1 activator: resveratrol, 0.5 mg/kg (Abcam); ROS scavenger: Mn (III) tetrakis (4-benzoic acid) porphyrin (MnTBAP), 1.25 mg/kg (Calbiochem); ROS generator: tert-butyl hydroperoxide solution (Luperox TBH70X), 200 μL/kg (Sigma-Aldrich); ATP synthase inhibitor: oligomycin, 250 μg/kg (Sigma-Aldrich); paraquat 2 mg/kg (Nakalai Tesque); oltipraz 1.9 mg/kg (Sigma); bezafibrate 1 mg/kg (ChemCruz).
MethA cells (5×10^5) were inoculated into BALB/c mice. After 7 days, anti-PD-L1 antibody (1-111A, 80 μg) and Foxo1 inhibitor (5-amino-7-(cyclohexylamino)-1-ethyl-6-fluoro-4-oxo-1,4-dihydroquinoline-3-carboxylic acid, Calbiochem) (2 mg/kg) were administered intraperitoneally.
Fibrosarcoma MethA (Cell Resource Center for Biomedical Research) cells (5×10^5) were inoculated into BALB/c mice. After 7 days, anti-PD-L1 antibody (1-111A, 60 μg) and Aminoleban (Otsuka Pharmaceutical, 400 μl/mouse) were administered.

The test system of the next assay is MC38. The assay can be described thus: Mouse therapy model, MC38-bearing mice (tumor volume, survival). It is filed as in vivo. As to the method:
as §3, §4
All reagents were freshly prepared just before use. Each reagent was dissolved in the solvent indicated in the instructions. Note that the AMPK activator, mTOR activator, uncouplers and SIRT1 activator were prepared from fresh unused vials in each series of experiments. Dissolved reagents were diluted in PBS, and a 200 l aliquot was injected per mouse.
Murine colon adenocarcinoma MC38 cells (5×10^5) were inoculated into C57BL/6 mice. After 7 days, anti-PD-L1 antibody (1-111A, 150 μg) and AMPK inhibitor (Compound C: 200 μg in BBS, 200 μL) were administered intraperitoneally. Anti-PD-L1 antibody was administered 3 times at a regular interval of 6 days; Compound C (C.C) was administered 7 times at a regular interval 2 days.
MC38 cells (5×10^5) were inoculated into C57BL/6 mice. After 7 days, anti-PD-L1 antibody (1-111A, 150 μg) and PGC-1α/transcription factor complex activator (2-(4-{2-[(4-chlorobenzoyl)amino]ethyl}phenoxy)-2-methylpropanoic acid (bezafibrate): 10 ug in PBS, 200 ul) were administered intraperitoneally. Anti-PD-L1 antibody was administered 3 times at a regular interval of 6 days; bezafibrate was administered 7 times at a regular interval 2 days.

The test system of another assay is PGC-1α. The assay can be described thus: PGC-1α expression (Western blotting, real-time RT-PCR). It is filed as in vivo, mouse. Particulars: combination therapy together with PD-L1 antibody. As to the method:
RNA was isolated from CD8^+ T cells or tumor cells with the RNeasy Mini Kit (Qiagen), followed by cDNA synthesis by reverse transcription. Real-time PCR for PGC-1α was performed using the following primers: Forward […] (SEQ ID NO: 1) and Reverse […] (SEQ ID NO: 2). To analyze the expression levels of genes associated with apoptosis and mitochondrial energy metabolism, RT2 Profiler PCR Array Gene Expression Kit PAMM-012Z or PAMM-008Z (Qiagen) was used. The list of genes included in this assay can be found in www.sabiosciences.com/Apoptosis.php.
CD8^+ T cells were isolated using mouse CD8 Microbeads (Miltenyi Biotec). After washing with PBS twice, 2×10^6 cells were solubilized in a lysis buffer containing 30 mM Tris-HCl (pH.7.4), 150 mM NaCl, 10% glycerol, 0.1% SDS, 1% Triton-X-100, 0.05% Na-Doc, 5 mM EDTA (pH.8.0), protease inhibitor mixture (Roche Molecular Biochemicals) and phosphatase inhibitors (Nacalai Tesque). After measurement of protein concentrations by DC protein assay (Bio-Rad), 4 μg of proteins was mounted on 4 to 20% gradient Mini-PROTEAN TGX Gels (Bio-Rad) and electroblotted onto nitrocellulose membranes, which were then incubated in a blocking buffer of TBS containing 1% BSA. Primary antibody incubations were carried out overnight at 4° C. in blocking buffer. After washing, secondary antibody incubations were carried out at room temperature for 40 min in blocking buffer. Blots were developed with enhanced chemiluminescence (Amersham Pharmacia). Primary antibodies recognizing the following proteins were used: Phospho-mTOR (P-mTOR) (Cat #5536), Phospho-AMPKa (P-AMPK) (#2535), Phospho-p70 S6 Kinase (P-S6K) (#9205), 4E-BP1 (#9644), Phospho-Acetyl-CoA Carboxylase (P-ACC) (#3661) and SIRT1 (#9475). All the primary antibodies were obtained from Cell Signaling Technology. An antibody recognizing PGC-1α (SC-13067) was obtained from Santa Cruz.

In the case of `N#CC(C#N)=NNc1ccc(OC(F)(F)F)cc1` [FCCP, carbonyl cyanide p-trifluoromethoxyphenylhydrazone], the “activation of AMPK and its associated proteins ACC and SIRT1” value in assay [1] is on record as “activated”. Moreover, the “activation of mTOR and its associated proteins S6K and 4EBP1” value in assay [2] is “also found to be activated”. The “enhancement of antitumor effect of PD-L1 antibody (tumor volume)” value in the assay with MethA was “enhanced the antitumor effect of PD-L1 antibody”; in the assay on MC38 (MC38-bearing mice, reagent combined with PD-L1 antibody vs PD-L1 antibody alone), “augmented the efficacy of PD-L1 antibody therapy; also recorded: enhance the antitumor effect of PD-L1 antibody”. In addition, in the assay with MC38 (MC38-bearing mice, reagent alone, no PD-L1 antibody, tumor volume), the “antitumor effect when administered alone” value is given as “failed to exhibit any antitumor effect”. Also, the survival rate entry with MC38 (mouse, in vivo) was “remarkably improved the survival rate”. The “expression levels of PGC-1α protein and mRNA” value in the assay on PGC-1α is on record as “increased”.
